Data on 10 compounds can be found in paper PMC9953295, “Commonly Used Therapeutics Associated with Changes in Arousal Inhibit GABAAR Activation” (Biomolecules, 2023).

In data set [1] the target is α1β2γ2L GABAA receptors stably expressed in HEK293 cells (Mus musculus, UniProt P22723+P62812+P63137). It is filed as cell-based. The note with it: for Effect on GABAA receptor activation (in words): microfluidic patch clamp, concentrations up to 300 μM; for nH: Hill coefficient of modulator concentration-response. How it is done:
Extracellular saline solutions contained 140 mM NaCl, 5 mM KCl, 2 mM CaCl2, 1 mM MgCl2, 10 mM HEPES, and 10 mM D-glucose. Both salines were adjusted to pH 7.4 (330 mOsm) and were 0.2 µm filter sterilized. The composition was based on solutions designed for long duration HEK293 biophysics studies. HEK293 cells stably expressing mouse α1β2γ2L receptors were dissociated with detachin (Genlantis, San Diego, CA, USA), resuspended in extracellular saline (2.5 × 10^6 cells/mL), and agitated prior to loading into 384-well Fluxion ensemble plates.
Cells were patched using an Ionflux Mercury microfluidic automated patch clamp system (Fluxion Biosciences, Oakland, CA, USA). Each experiment ran on a disposable 384-well plate with microfluidic channels printed into an ionized polydimethylsiloxane base. Each plate was divided into 4 zones, each containing 8 repeats of the same experimental pattern (see Figure 1). Each pattern comprised 8 compound wells containing the ligands/modulator combinations to be used in the experiment. Connected to these by a manifold perfusion chamber was an inlet well containing the cell suspension, an outlet well for discarded perfusate, and 2 trapping wells. Both trapping wells contained intracellular solution and were connected to the manifold via 20 1 µm diameter holes for cell attachment (each pattern can patch up to 40 cells simultaneously). Intracellular electrodes were placed in the 2 trapping wells, and the reference electrode in the waste well. Electrodes were connected to 64 conventional low-noise resistive feedback amplifiers. After cleaning, the plates were loaded with up to 100 µL of experimental solution or cell suspension per well. Each plate was loaded into the Fluxion Ionflux Mercury device, and a bespoke script primed the experimental fluidic channels and manifold, and the traps and sealed cells for voltage clamp measurements, and finally, controlled solution application/concentration jumps prior to saving the data collected. Agonist applications were repeated in triplicate (see Supplemental Figure S1). The current data were recorded at 10 kHz and stored for offline analysis. MATLAB scripts were used to measure the baseline leak current and peak response for each episode of data (typically 2000–4000/experiment). The matrix of peaks was expressed as a percentage of the response to a reference concentration. For the agonist concentration–response experiments, this was the maximum response. For the modulator concentration–response experiments, this was the EC10 agonist response.

The conditions of data set [2]: one reference per drug; cited from earlier work.
Details of data set [3]: method as in PMID 10384859. The note with it: cited from earlier work.
Data set [4] deals with T1, Human GABAA receptor (α1β2γ2s) expressed in HEK293 cells (Homo sapiens, UniProt P14867+P18507+P47870).
T1 construct: expressed in transfected cells; host or cells: HEK293
T1 sequence (P14867 28-456): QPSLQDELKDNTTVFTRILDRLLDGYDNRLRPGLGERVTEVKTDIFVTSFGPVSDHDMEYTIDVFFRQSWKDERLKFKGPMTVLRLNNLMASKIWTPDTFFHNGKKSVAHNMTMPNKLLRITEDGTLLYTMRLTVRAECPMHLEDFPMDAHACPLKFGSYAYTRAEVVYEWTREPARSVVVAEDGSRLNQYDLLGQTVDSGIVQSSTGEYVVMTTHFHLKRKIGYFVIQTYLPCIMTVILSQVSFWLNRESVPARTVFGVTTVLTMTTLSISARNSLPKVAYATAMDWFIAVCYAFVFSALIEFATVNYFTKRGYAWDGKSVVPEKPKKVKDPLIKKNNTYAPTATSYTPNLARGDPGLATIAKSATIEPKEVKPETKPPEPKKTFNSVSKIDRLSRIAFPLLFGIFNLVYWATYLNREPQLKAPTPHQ
T1 sequence (P47870 25-512 limits assumed): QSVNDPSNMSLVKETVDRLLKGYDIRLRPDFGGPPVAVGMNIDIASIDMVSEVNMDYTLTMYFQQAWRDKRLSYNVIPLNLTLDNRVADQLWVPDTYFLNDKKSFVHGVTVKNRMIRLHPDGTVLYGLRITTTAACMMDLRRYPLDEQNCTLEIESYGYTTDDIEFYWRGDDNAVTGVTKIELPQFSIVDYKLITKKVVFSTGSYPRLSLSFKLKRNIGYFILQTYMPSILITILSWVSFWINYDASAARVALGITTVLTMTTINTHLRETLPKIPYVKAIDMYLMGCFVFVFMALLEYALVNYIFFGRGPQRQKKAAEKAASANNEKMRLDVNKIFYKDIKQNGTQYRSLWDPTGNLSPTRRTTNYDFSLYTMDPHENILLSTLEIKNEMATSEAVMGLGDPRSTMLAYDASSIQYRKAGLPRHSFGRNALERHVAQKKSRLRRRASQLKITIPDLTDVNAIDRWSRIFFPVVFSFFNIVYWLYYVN
T1 sequence (P18507 40-467 isoform P18507-1 limits assumed): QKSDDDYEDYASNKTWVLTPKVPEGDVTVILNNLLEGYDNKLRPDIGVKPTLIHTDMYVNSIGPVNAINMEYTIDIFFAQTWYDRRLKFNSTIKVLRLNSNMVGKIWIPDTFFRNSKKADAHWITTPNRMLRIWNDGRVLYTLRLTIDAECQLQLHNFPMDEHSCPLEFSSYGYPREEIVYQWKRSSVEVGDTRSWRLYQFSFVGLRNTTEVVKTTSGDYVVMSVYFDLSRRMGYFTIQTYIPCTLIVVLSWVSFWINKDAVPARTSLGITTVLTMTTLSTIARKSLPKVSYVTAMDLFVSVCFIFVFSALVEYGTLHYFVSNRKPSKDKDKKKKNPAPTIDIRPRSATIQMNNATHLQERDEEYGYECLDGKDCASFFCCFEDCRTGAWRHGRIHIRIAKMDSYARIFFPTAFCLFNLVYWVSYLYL
Put plainly: Conventional whole-cell patch clamp: GABAA receptor activation and CSF-mediated potentiation. The class given is cell-based. Particulars: for Effect on GABAA receptor activation (in words): conventional single electrode patch clamp. How it is done: Human GABAA receptor cDNAs (α1β2γ2s) were subcloned into the pcDNA 3.1 expression vector, and they were subsequently transfected into HEK293 cells using standard methods. Forty-eight hours later, cells were exposed to individual GABAARNAM solutions with simultaneous exposure to GABA. GABAARNAMs were obtained from Sigma-Aldrich, and the solutions were prepared with a saline solution to 1–300 µM concentrations. […] Stable cell lines were generated and handled as previously described.
Patch pipettes were fabricated from thin-walled borosilicate glass (TW150F-4, World Precision Instruments, Inc., Sarasota, FL, USA) using a horizontal puller (P-97, Sutter Instrument Co., Novato, CA, USA). The resistances of the patch pipettes were 2–5 megaohms when filled with an intracellular solution containing 120 mM KCl, 2 mM MgCl2, 10 mM EGTA, and 10 mM HEPES, adjusted to pH 7.2 with NaOH. Cells were perfused continuously with an extracellular solution containing 160 mM NaCl, 10 mM HEPES, 6 mM D-glucose, 3 mM KCl, 1 mM MgCl2, and 1.5 mM CaCl2, adjusted to pH 7.4. Two 10-channel infusion pumps (KD Scientific) and a rapid solution exchanger (Biologic) were used to apply extracellular saline to the cells. […] The solution changer was driven by protocols written in pClamp 9.2 (Molecular Devices).

Structures are written as SMILES. Structures can show the parent of a compound that is named as a salt.

Sequence of α1β2γ2L GABAA receptors stably expressed in HEK293 cells (P63137 26-512): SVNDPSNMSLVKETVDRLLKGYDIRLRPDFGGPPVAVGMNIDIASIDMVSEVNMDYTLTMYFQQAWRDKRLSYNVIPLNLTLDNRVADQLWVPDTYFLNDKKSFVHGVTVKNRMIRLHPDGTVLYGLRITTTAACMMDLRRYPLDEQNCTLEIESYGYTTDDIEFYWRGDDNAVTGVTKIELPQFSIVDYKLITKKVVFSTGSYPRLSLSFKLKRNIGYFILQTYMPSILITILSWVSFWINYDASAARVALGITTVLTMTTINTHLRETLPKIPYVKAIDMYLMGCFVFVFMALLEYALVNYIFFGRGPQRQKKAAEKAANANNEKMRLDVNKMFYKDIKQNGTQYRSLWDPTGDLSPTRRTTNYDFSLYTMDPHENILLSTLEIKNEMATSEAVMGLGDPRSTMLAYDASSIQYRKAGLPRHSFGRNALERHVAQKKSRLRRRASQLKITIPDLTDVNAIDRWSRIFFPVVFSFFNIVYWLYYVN
Sequence of α1β2γ2L GABAA receptors stably expressed in HEK293 cells (P22723 39-474): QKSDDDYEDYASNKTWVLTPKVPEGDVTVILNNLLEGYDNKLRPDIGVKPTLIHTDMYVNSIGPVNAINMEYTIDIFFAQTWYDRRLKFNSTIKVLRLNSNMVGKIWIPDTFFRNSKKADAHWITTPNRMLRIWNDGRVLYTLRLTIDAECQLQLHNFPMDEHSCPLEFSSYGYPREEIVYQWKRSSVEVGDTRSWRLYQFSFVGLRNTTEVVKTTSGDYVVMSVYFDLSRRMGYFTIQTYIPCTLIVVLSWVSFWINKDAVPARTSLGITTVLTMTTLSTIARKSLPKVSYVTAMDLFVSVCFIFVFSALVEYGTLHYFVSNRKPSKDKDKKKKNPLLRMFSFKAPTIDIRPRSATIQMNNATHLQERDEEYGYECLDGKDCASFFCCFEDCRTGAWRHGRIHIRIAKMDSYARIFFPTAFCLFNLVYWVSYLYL
Sequence of α1β2γ2L GABAA receptors stably expressed in HEK293 cells (P62812 28-455): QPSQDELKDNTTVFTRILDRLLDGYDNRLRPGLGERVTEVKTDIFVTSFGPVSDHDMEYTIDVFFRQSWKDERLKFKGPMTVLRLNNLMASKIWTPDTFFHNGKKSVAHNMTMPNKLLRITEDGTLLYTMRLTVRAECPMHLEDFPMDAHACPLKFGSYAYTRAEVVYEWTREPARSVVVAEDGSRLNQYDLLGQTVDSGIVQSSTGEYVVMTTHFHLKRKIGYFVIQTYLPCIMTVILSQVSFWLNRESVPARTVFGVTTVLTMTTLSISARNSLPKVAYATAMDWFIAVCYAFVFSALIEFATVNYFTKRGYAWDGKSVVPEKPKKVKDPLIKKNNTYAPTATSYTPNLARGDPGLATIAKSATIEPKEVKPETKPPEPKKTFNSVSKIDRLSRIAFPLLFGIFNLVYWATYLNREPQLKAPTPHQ

As to `CN(C)c1ccc(O)c2c1C[C@H]1C[C@H]3[C@H](N(C)C)C(O)=C(C(N)=O)C(=O)[C@@]3(O)C(O)=C1C2=O` [Minocycline], the “Effect on GABAA receptor activation (in words)” value in data set [1] is “irreversible blocker”. The “[CNS] concentration of drug in the CNS” value in data set [2] is 1.1 [41] μM.

Take `NCCCC(=O)O` [GABA]: the “Response to GABA as % of the maximal response” value in data set [1] (100 µM GABA) was > 90%.

Turning to `CCN(CC)CCCC(C)Nc1ccnc2cc(Cl)ccc12` (stereo not shown) [Chloroquine], in data set [2], the “[CNS] concentration of drug in the CNS” value is 1.60 [36] μM.

As for `CC[C@H]1OC(=O)[C@H](C)[C@@H](O[C@H]2C[C@@](C)(OC)[C@@H](O)[C@H](C)O2)[C@H](C)[C@@H](O[C@@H]2O[C@H](C)C[C@H](N(C)C)[C@H]2O)[C@](C)(O)C[C@@H](C)C(=O)[C@H](C)[C@@H](O)[C@]1(C)O` [Erythromycin], in data set [2], the “[CNS] concentration of drug in the CNS” value is 0.68 [38] μM.

Consider `C1CCc2nnnn2CC1` [pentylenetetrazole, Pentylenetetrazol], for which, in data set [1], the nH is listed as 1.3 and the “Effect on GABAA receptor activation (in words)” value was “blocked GABAAR activation in a concentration-dependent manner”. Further, the “[CNS] concentration of drug in the CNS” value in data set [2] is 330 [43] μM.

For `Cc1ncc([N+](=O)[O-])n1CCO` [Metronidazole], in data set [1], the nH stood at 0.8 and the “Effect on GABAA receptor activation (in words)” value is given as “modest inhibition of GABA activation”. In addition, in data set [3] (administered orally), the Bioavailability was > 90%. Moreover, in data set [3], the “CNS concentration as % of plasma concentrations” value is reported as 60–100%.

For `O=C(O[C@@H]1Cc2c(O)cc(O)cc2O[C@@H]1c1cc(O)c(O)c(O)c1)c1cc(O)c(O)c(O)c1` [EGCG, (-)-Epigallocatechin Gallate], in data set [1], the nH was found to be 1.1 and the “Effect on GABAA receptor activation (in words)” value is reported as “modest inhibition of GABA activation”. The “[CNS] concentration of drug in the CNS” value in data set [2] was 0.18 [35] μM.

On to `CC1COc2c(N3CCN(C)CC3)c(F)cc3c(=O)c(C(=O)O)cn1c23` (stereo not shown) [Ofloxacin], for which the “Effect on GABAA receptor activation (in words)” value was “modest and incomplete block of receptor activation” in data set [4]; “modest and incomplete block of receptor activation” in data set [1]. Moreover, the “[CNS] concentration of drug in the CNS” value in data set [2] was 5.6 [42] μM.

Regarding `CC[C@H]1OC(=O)[C@H](C)[C@@H](O[C@H]2C[C@@](C)(OC)[C@@H](O)[C@H](C)O2)[C@H](C)[C@@H](O[C@@H]2O[C@H](C)C[C@H](N(C)C)[C@H]2O)[C@](C)(OC)C[C@@H](C)C(=O)[C@H](C)[C@@H](O)[C@]1(C)O` [Clarithromycin, clarithromycin], the “Reversal of CSF-induced potentiation of GABA receptor function” value in data set [4] (300 μM clarithromycin, currents activated by 10 μM GABA (EC10), CSF from hypersomnolent patients, n = 6 cells) is given as 71 ± 13%. Also, the “Intrinsic efficacy at GABAA receptor (in words)” value in data set [4] (clarithromycin applied without GABA) is reported as “no intrinsic efficacy”. Also, the “Effect on GABAA receptor activation (in words)” value in data set [4] is on record as “reversibly inhibits receptor activation”. Further, in data set [1] (GABA concentration–function relationships in 0–300 μM clarithromycin), the “Effect of clarithromycin concentration on GABA EC50 (in words)” value is reported as “GABA EC50 continued to increase”. In addition, in data set [1], the nH is on record as 1 and the “Effect on GABAA receptor activation (in words)” value is listed as “reversibly inhibited GABAA receptor activation in a concentration-dependent manner”. The “[CNS] concentration of drug in the CNS” value in data set [2] was 10 [37] μM.

As to `CCN(CCO)CCCC(C)Nc1ccnc2cc(Cl)ccc12` (stereo not shown) [Hydroxychloroquine, Hydroxychloroquine sulfate], in data set [1], the nH is 1.4; the “Effect on GABAA receptor activation (in words)” value was “modest and incomplete block of receptor activation”. The “[CNS] concentration of drug in the CNS” value in data set [2] was 50 [39] μM.
